Measured values: US8076487B2, “Pyridone derivative and herbicide” (Kumiai Chemical Industry Co., Ltd., priority 2006, dated 2011)

Legend:
Type in all cases: in vivo
[1] = tested on: early watergrass (Echinochloa oryzicola Vasing); assay: Test Example 1: herbicidal effect by soil application to paddy field; details: paddy field soil application; active ingredient 1,000 g per 1 hectare; wettable powder added dropwise to water surface the day after sowing; examined on the 21st day after application
Summary of the method: (§1)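 Under greenhouse conditions, seeds sown on puddled paddy soil in 100 cm2 pots under 3 cm of standing water received the test compound; injury was assessed with a standard scoring scheme three weeks (day 21) after treatment.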

[2] = tested on: heartshape false pickerelweed (Monochoria vaginalis (Burm.f.) C.Presl); assay: as above; details: paddy field soil application; active ingredient 1,000 g per 1 hectare; wettable powder added dropwise to water surface the day after sowing; examined on the 21st day after application
Summary of the method: as §1

[3] = tested on: Japanese bulrush (Scirpus juncoides Roxb.); assay: as above; details: paddy field soil application; active ingredient 1,000 g per 1 hectare; wettable powder added dropwise to water surface the day after sowing; examined on the 21st day after application
Summary of the method: as §1

[4] = tested on: barnyardgrass (Echinochloa crus-galli (L.) P. Beauv. var. crus-galli); assay: Test Example 2: herbicidal effect by soil application to upland field; details: soil surface spray, upland field soil, 1,000 g active ingredient per hectare, 21st day after application
Summary of the method: (§2)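 Using a small sprayer, we treat the soil surface of pots just after sowing and covering seeds. The aqueous wettable powder supplies 1,000 g a.i./ha in 1,000 L water/ha; after greenhouse growth, injury is scored on day 21 using a standard rating.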

[5] = tested on: slender amaranth (Amaranthus viridis L.); assay: as above; details: soil surface spray, upland field soil, 1,000 g active ingredient per hectare, 21st day after application
Summary of the method: as §2

[6] = tested on: velvetleaf (Abutilon theophrasti medicus); assay: as above; details: soil surface spray, upland field soil, 1,000 g active ingredient per hectare, 21st day after application
Summary of the method: as §2

[7] = tested on: green foxtail (Setaria viridis (L.) P. Beauv.); assay: as above; details: soil surface spray, upland field soil, 1,000 g active ingredient per hectare, 21st day after application
Summary of the method: as §2

[8] = tested on: barnyardgrass (Echinochloa crus-galli (L.) P. Beauv. var. crus-galli); assay: Test Example 3: herbicidal effect by application to upland field (foliage treatment); details: 14th day after application; for herbicidal effect, Barnyardgrass: foliage treatment, 1,000 g active ingredient per 1 hectare, greenhouse; for herbicidal effect (index), Barnyardgrass: foliage treatment, plants grown two weeks, 1,000 g active ingredient per hectare
Summary of the method: (§3)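 Read-out is a visual herbicidal-effect grade on a standard scale, taken on the 14th day after a single foliar spray. The spray was wettable powder diluted in water, 1,000 g active ingredient/ha at 1,000 L/ha, applied to greenhouse plants two weeks after sowing.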

[9] = tested on: slender amaranth (Amaranthus viridis L.); assay: as above; details: 14th day after application; for herbicidal effect, Slender Amaranth: foliage treatment, 1,000 g active ingredient per 1 hectare, greenhouse; for herbicidal effect (index), Slender Amaranth: foliage treatment, plants grown two weeks, 1,000 g active ingredient per hectare
Summary of the method: as §3

[10] = tested on: velvetleaf (Abutilon theophrasti medicus); assay: as above; details: 14th day after application; for herbicidal effect, Velvetleaf: foliage treatment, 1,000 g active ingredient per 1 hectare, greenhouse; for herbicidal effect (index), Velvetleaf: foliage treatment, plants grown two weeks, 1,000 g active ingredient per hectare
Summary of the method: as §3

[11] = tested on: green foxtail (Setaria viridis (L.) P. Beauv.); assay: as above; details: 14th day after application; for herbicidal effect, Green Foxtail: foliage treatment, 1,000 g active ingredient per 1 hectare, greenhouse; for herbicidal effect (index), Green Foxtail: foliage treatment, plants grown two weeks, 1,000 g active ingredient per hectare
Summary of the method: as §3

## CCCS(=O)(=O)Oc1c(C(=O)c2ccc(C(F)(F)F)n(C3CC3)c2=O)cnn1C [IV-19]
[1]
  herbicidal effect, Echinochloa oryzicola Vasing: 5 (90% or more of herbicidal effect and crop phytotoxicity)
[2]
  herbicidal effect, Monochoria vaginalis (Burm. f.) C. Presl: 5 (90% or more of herbicidal effect and crop phytotoxicity)
[3]
  herbicidal effect, Scirpus juncoides Roxb.: 5 (90% or more of herbicidal effect and crop phytotoxicity)
[4]
  herbicidal effect (index), Barnyardgrass: 5 (90% or more of herbicidal effect and crop phytotoxicity)
[5]
  herbicidal effect (index), Slender Amaranth: 5 (90% or more of herbicidal effect and crop phytotoxicity)
[6]
  herbicidal effect (index), Velvetleaf: 5 (90% or more of herbicidal effect and crop phytotoxicity)
[7]
  herbicidal effect (index), Green Foxtail: 5 (90% or more of herbicidal effect and crop phytotoxicity)
[8]
  herbicidal effect, Barnyardgrass: 5 (90% or more of herbicidal effect and crop phytotoxicity)
[9]
  herbicidal effect, Slender Amaranth: 5 (90% or more of herbicidal effect and crop phytotoxicity)
[10]
  herbicidal effect, Velvetleaf: 5 (90% or more of herbicidal effect and crop phytotoxicity)
[11]
  herbicidal effect, Green Foxtail: 5 (90% or more of herbicidal effect and crop phytotoxicity)

## O=C1CCCC(O)=C1C(=O)c1ccc(C(F)(F)F)n(C2CC2)c1=O [I-16]
[1]
  herbicidal effect, Echinochloa oryzicola Vasing: 5 (90% or more of herbicidal effect and crop phytotoxicity)
[2]
  herbicidal effect, Monochoria vaginalis (Burm. f.) C. Presl: 5 (90% or more of herbicidal effect and crop phytotoxicity)
[3]
  herbicidal effect, Scirpus juncoides Roxb.: 5 (90% or more of herbicidal effect and crop phytotoxicity)
[4]
  herbicidal effect (index), Barnyardgrass: 5 (90% or more of herbicidal effect and crop phytotoxicity)
[5]
  herbicidal effect (index), Slender Amaranth: 5 (90% or more of herbicidal effect and crop phytotoxicity)
[6]
  herbicidal effect (index), Velvetleaf: 5 (90% or more of herbicidal effect and crop phytotoxicity)
[7]
  herbicidal effect (index), Green Foxtail: 5 (90% or more of herbicidal effect and crop phytotoxicity)
[8]
  herbicidal effect (index), Barnyardgrass: 5 (90% or more of herbicidal effect and crop phytotoxicity)
[9]
  herbicidal effect (index), Slender Amaranth: 5 (90% or more of herbicidal effect and crop phytotoxicity)
[10]
  herbicidal effect (index), Velvetleaf: 5 (90% or more of herbicidal effect and crop phytotoxicity)
[11]
  herbicidal effect (index), Green Foxtail: 5 (90% or more of herbicidal effect and crop phytotoxicity)

## CCC(C)n1c(C(F)(F)F)ccc(C(=O)C2=C(O)CCCC2=O)c1=O (stereo not shown) [I-7]
[1]
  herbicidal effect, Echinochloa oryzicola Vasing: 5 (90% or more of herbicidal effect and crop phytotoxicity)
[2]
  herbicidal effect, Monochoria vaginalis (Burm. f.) C. Presl: 5 (90% or more of herbicidal effect and crop phytotoxicity)
[3]
  herbicidal effect, Scirpus juncoides Roxb.: 5 (90% or more of herbicidal effect and crop phytotoxicity)
[4]
  herbicidal effect (index), Barnyardgrass: 5 (90% or more of herbicidal effect and crop phytotoxicity)
[5]
  herbicidal effect (index), Slender Amaranth: 5 (90% or more of herbicidal effect and crop phytotoxicity)
[6]
  herbicidal effect (index), Velvetleaf: 5 (90% or more of herbicidal effect and crop phytotoxicity)
[7]
  herbicidal effect (index), Green Foxtail: 5 (90% or more of herbicidal effect and crop phytotoxicity)
[8]
  herbicidal effect (index), Barnyardgrass: 5 (90% or more of herbicidal effect and crop phytotoxicity)
[9]
  herbicidal effect (index), Slender Amaranth: 5 (90% or more of herbicidal effect and crop phytotoxicity)
[10]
  herbicidal effect (index), Velvetleaf: 5 (90% or more of herbicidal effect and crop phytotoxicity)
[11]
  herbicidal effect (index), Green Foxtail: 5 (90% or more of herbicidal effect and crop phytotoxicity)

## CC(C)CNn1c(C(F)(F)F)ccc(C(=O)C2=C(O)CCCC2=O)c1=O [I-162]
[1]
  herbicidal effect, Echinochloa oryzicola Vasing: 5 (90% or more of herbicidal effect and crop phytotoxicity)
[2]
  herbicidal effect, Monochoria vaginalis (Burm. f.) C. Presl: 5 (90% or more of herbicidal effect and crop phytotoxicity)
[3]
  herbicidal effect, Scirpus juncoides Roxb.: 5 (90% or more of herbicidal effect and crop phytotoxicity)
[4]
  herbicidal effect (index), Barnyardgrass: 5 (90% or more of herbicidal effect and crop phytotoxicity)
[5]
  herbicidal effect (index), Slender Amaranth: 4 (70 to less than 90% of herbicidal effect and crop phytotoxicity)
[6]
  herbicidal effect (index), Velvetleaf: 5 (90% or more of herbicidal effect and crop phytotoxicity)
[7]
  herbicidal effect (index), Green Foxtail: 5 (90% or more of herbicidal effect and crop phytotoxicity)
[8]
  herbicidal effect, Barnyardgrass: 5 (90% or more of herbicidal effect and crop phytotoxicity)
[9]
  herbicidal effect, Slender Amaranth: 5 (90% or more of herbicidal effect and crop phytotoxicity)
[10]
  herbicidal effect, Velvetleaf: 5 (90% or more of herbicidal effect and crop phytotoxicity)
[11]
  herbicidal effect, Green Foxtail: 5 (90% or more of herbicidal effect and crop phytotoxicity)

## CCCS(=O)(=O)Oc1c(C(=O)c2ccc(C(F)(F)F)n(CC(C)OC)c2=O)cnn1C (stereo not shown) [IV-39]
[1]
  herbicidal effect, Echinochloa oryzicola Vasing: 5 (90% or more of herbicidal effect and crop phytotoxicity)
[2]
  herbicidal effect, Monochoria vaginalis (Burm. f.) C. Presl: 5 (90% or more of herbicidal effect and crop phytotoxicity)
[3]
  herbicidal effect, Scirpus juncoides Roxb.: 5 (90% or more of herbicidal effect and crop phytotoxicity)
[4]
  herbicidal effect (index), Barnyardgrass: 5 (90% or more of herbicidal effect and crop phytotoxicity)
[5]
  herbicidal effect (index), Slender Amaranth: 4 (70 to less than 90% of herbicidal effect and crop phytotoxicity)
[6]
  herbicidal effect (index), Velvetleaf: 4 (70 to less than 90% of herbicidal effect and crop phytotoxicity)
[7]
  herbicidal effect (index), Green Foxtail: 3 (50 to less than 70% of herbicidal effect and crop phytotoxicity)
[8]
  herbicidal effect, Barnyardgrass: 5 (90% or more of herbicidal effect and crop phytotoxicity)
[9]
  herbicidal effect, Slender Amaranth: 5 (90% or more of herbicidal effect and crop phytotoxicity)
[10]
  herbicidal effect, Velvetleaf: 5 (90% or more of herbicidal effect and crop phytotoxicity)
[11]
  herbicidal effect, Green Foxtail: 3 (50 to less than 70% of herbicidal effect and crop phytotoxicity)

## CC1=NOC(Cn2c(C(F)(F)F)ccc(C(=O)C3=C(O)CCCC3=O)c2=O)C1 (stereo not shown) [I-126]
[1]
  herbicidal effect, Echinochloa oryzicola Vasing: 5 (90% or more of herbicidal effect and crop phytotoxicity)
[2]
  herbicidal effect, Monochoria vaginalis (Burm. f.) C. Presl: 5 (90% or more of herbicidal effect and crop phytotoxicity)
[3]
  herbicidal effect, Scirpus juncoides Roxb.: 5 (90% or more of herbicidal effect and crop phytotoxicity)
[4]
  herbicidal effect (index), Barnyardgrass: 5 (90% or more of herbicidal effect and crop phytotoxicity)
[5]
  herbicidal effect (index), Slender Amaranth: 5 (90% or more of herbicidal effect and crop phytotoxicity)
[6]
  herbicidal effect (index), Velvetleaf: 5 (90% or more of herbicidal effect and crop phytotoxicity)
[7]
  herbicidal effect (index), Green Foxtail: 5 (90% or more of herbicidal effect and crop phytotoxicity)
[8]
  herbicidal effect, Barnyardgrass: 5 (90% or more of herbicidal effect and crop phytotoxicity)
[9]
  herbicidal effect, Slender Amaranth: 5 (90% or more of herbicidal effect and crop phytotoxicity)
[10]
  herbicidal effect, Velvetleaf: 5 (90% or more of herbicidal effect and crop phytotoxicity)
[11]
  herbicidal effect, Green Foxtail: 5 (90% or more of herbicidal effect and crop phytotoxicity)

## O=C(C1=C(O)C2CCC(C2)C1=O)c1ccc(C(F)(F)F)n(CC2CCCO2)c1=O (stereo not shown) [III-38]
[1]
  herbicidal effect, Echinochloa oryzicola Vasing: 5 (90% or more of herbicidal effect and crop phytotoxicity)
[2]
  herbicidal effect, Monochoria vaginalis (Burm. f.) C. Presl: 5 (90% or more of herbicidal effect and crop phytotoxicity)
[3]
  herbicidal effect, Scirpus juncoides Roxb.: 5 (90% or more of herbicidal effect and crop phytotoxicity)
[4]
  herbicidal effect (index), Barnyardgrass: 5 (90% or more of herbicidal effect and crop phytotoxicity)
[5]
  herbicidal effect (index), Slender Amaranth: 5 (90% or more of herbicidal effect and crop phytotoxicity)
[6]
  herbicidal effect (index), Velvetleaf: 5 (90% or more of herbicidal effect and crop phytotoxicity)
[7]
  herbicidal effect (index), Green Foxtail: 3 (50 to less than 70% of herbicidal effect and crop phytotoxicity)
[8]
  herbicidal effect, Barnyardgrass: 5 (90% or more of herbicidal effect and crop phytotoxicity)
[9]
  herbicidal effect, Slender Amaranth: 5 (90% or more of herbicidal effect and crop phytotoxicity)
[10]
  herbicidal effect, Velvetleaf: 5 (90% or more of herbicidal effect and crop phytotoxicity)
[11]
  herbicidal effect, Green Foxtail: 4 (70 to less than 90% of herbicidal effect and crop phytotoxicity)

## CCCn1c(C(F)(F)F)ccc(C(=O)c2cnn(CC)c2OS(=O)(=O)CCC)c1=O [IV-202]
[1]
  herbicidal effect, Echinochloa oryzicola Vasing: 5 (90% or more of herbicidal effect and crop phytotoxicity)
[2]
  herbicidal effect, Monochoria vaginalis (Burm. f.) C. Presl: 5 (90% or more of herbicidal effect and crop phytotoxicity)
[3]
  herbicidal effect, Scirpus juncoides Roxb.: 5 (90% or more of herbicidal effect and crop phytotoxicity)
[4]
  herbicidal effect (index), Barnyardgrass: 5 (90% or more of herbicidal effect and crop phytotoxicity)
[5]
  herbicidal effect (index), Slender Amaranth: 5 (90% or more of herbicidal effect and crop phytotoxicity)
[6]
  herbicidal effect (index), Velvetleaf: 5 (90% or more of herbicidal effect and crop phytotoxicity)
[7]
  herbicidal effect (index), Green Foxtail: 5 (90% or more of herbicidal effect and crop phytotoxicity)
[8]
  herbicidal effect, Barnyardgrass: 5 (90% or more of herbicidal effect and crop phytotoxicity)
[9]
  herbicidal effect, Slender Amaranth: 5 (90% or more of herbicidal effect and crop phytotoxicity)
[10]
  herbicidal effect, Velvetleaf: 5 (90% or more of herbicidal effect and crop phytotoxicity)
[11]
  herbicidal effect, Green Foxtail: 5 (90% or more of herbicidal effect and crop phytotoxicity)
